How the values were obtained:
Format in all cases: in vivo
[1] = test system: Echinochloa crus-galli var. crus-galli; experiment: Test Example 5: herbicidal effect by foliage application, plastic box (symbol H); conditions: 320 g/ha, 3 weeks after application
Method in brief: (§1)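 Leaf-applied emulsion, water-diluted to a preset herbicide dose, on two-week-old seedlings raised in a 25° C. to 30° C. greenhouse; injury rated at 3 weeks using earlier criteria.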

[2] = test system: Echinochloa crus-galli var. crus-galli; experiment: Test Example 3: herbicidal effect by foliage application, Wagner pot (symbol H); conditions: application herbicide amount 320 g/ha; for H (Echinochloa crus-galli var. crus-galli) herbicidal effect grade: Table 24
Method in brief: (§2)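 Plants sown in submerged alluvial soil (water depth 0.1–0.5 cm) in a 25–30 °C greenhouse and grown 14 days. An emulsion of the compound diluted in water to a set herbicide amount was sprayed uniformly on foliage. Effect on each plant scored 3 weeks after application.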

Amaranthus retroflexus = experiment: Test Example 4: herbicidal effect by soil treatment (symbol N); conditions: for N: Amaranthus retroflexus, herbicidal effect grade: 320 g/ha; for Herbicidal effect grade, N: Amaranthus retroflexus: application herbicide amount 320 g/ha
Method in brief: (§3)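 Seeds were sown in sterilized diluvial soil, covered with about 1.5 cm of soil, and the soil surface was sprayed with a water-diluted emulsion of the compound at a predetermined rate. Plants grew in a greenhouse at 25° C. to 30° C.; effects were scored visually 3 weeks after application.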

Stellaria media = experiment: Test Example 4: herbicidal effect by soil treatment (symbol P); conditions: for P: Stellaria media, herbicidal effect grade: 320 g/ha; for Herbicidal effect grade, P: Stellaria media: application herbicide amount 320 g/ha
Method in brief: as §3

transplanted rice plant = experiment: Test Example 1: effect on crop, application before weed generation in submerged conditions (symbol a); conditions: application herbicide amount 320 g/ha
Method in brief: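 Rice at 2.5 leaf stage transplanted into submerged soil (4 cm depth) sown with three weed species; herbicide applied before weed emergence.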

Cyperus difformis = experiment: Test Example 3: herbicidal effect by foliage application, Wagner pot (symbol E); conditions: application herbicide amount 320 g/ha; for E herbicidal effect grade: Table 24
Method in brief: as §2

Apera spica-venti [3] = experiment: Test Example 5: herbicidal effect by foliage application, plastic box (symbol L); conditions: 320 g/ha, 3 weeks after application
Method in brief: as §1

soybean [4] = experiment: Test Example 4: effect on crop by soil treatment (symbol d); conditions: for d: soybean, effect grade on crop: 320 g/ha; for Effect on crop grade, d: soybean: application herbicide amount 320 g/ha
Method in brief: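 Plants are raised in a greenhouse (25° C. to 30° C.) from spot-sown seed, which sits under about 1.5 cm of sterilized diluvial soil in a box shared with weed species.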

soybean [5] = experiment: Test Example 5: effect on crop by foliage application, plastic box (symbol d); conditions: 320 g/ha, 3 weeks after application
Method in brief: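 Crop and weed seeds sown in spots in sterilized diluvial soil in plastic boxes and covered with about 1.5 cm soil. Plants raised in a greenhouse at 25° C. to 30° C. for foliar application.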

Leptochloa chinensis = experiment: Test Example 3: herbicidal effect by foliage application, Wagner pot (symbol D); conditions: application herbicide amount 320 g/ha; for D (Leptochloa chinensis) herbicidal effect grade: Table 24
Method in brief: as §2

Alopecurus myosuroides = experiment: Test Example 4: herbicidal effect by soil treatment (symbol J); conditions: for J: Alopecurus myosuroides, herbicidal effect grade: 320 g/ha; for Herbicidal effect grade, J: Alopecurus myosuroides: application herbicide amount 320 g/ha
Method in brief: as §3

Veronica persica = experiment: Test Example 4: herbicidal effect by soil treatment (symbol R); conditions: for R: Veronica persica, herbicidal effect grade: 320 g/ha; for Herbicidal effect grade, R: Veronica persica: application herbicide amount 320 g/ha
Method in brief: as §3

Abutilon theophrasti = experiment: Test Example 5: herbicidal effect by foliage application, plastic box (symbol M); conditions: 320 g/ha, 3 weeks after application
Method in brief: as §1

Setaria viridis = experiment: Test Example 5: herbicidal effect by foliage application, plastic box (symbol G); conditions: 320 g/ha, 3 weeks after application
Method in brief: as §1

Apera spica-venti [6] = experiment: Test Example 4: herbicidal effect by soil treatment (symbol L); conditions: for L: Apera spica-venti, herbicidal effect grade: 320 g/ha; for Herbicidal effect grade, L: Apera spica-venti: application herbicide amount 320 g/ha
Method in brief: as §3

Row | SMILES | H: Echinochloa crus-galli var. crus-galli, herbicidal effect (criteria 0-5) [1] | herbicidal effect on H (Echinochloa crus-galli var. crus-galli), grade 0-5 [2] | N: Amaranthus retroflexus, herbicidal effect grade (Amaranthus retroflexus) | P: Stellaria media, herbicidal effect grade (Stellaria media) | Effect grade on crop, a: transplanted rice plant (transplanted rice plant) | herbicidal effect on E, grade 0-5 (Cyperus difformis) | L: Apera spica-venti, herbicidal effect (criteria 0-5) (Apera spica-venti [3]) | d: soybean, effect grade on crop (soybean [4]) | d: soybean, effect on crop (criteria 0-5) (soybean [5]) | herbicidal effect on D (Leptochloa chinensis), grade 0-5 (Leptochloa chinensis) | J: Alopecurus myosuroides, herbicidal effect grade (Alopecurus myosuroides) | R: Veronica persica, herbicidal effect grade (Veronica persica) | M: Abutilon theophrasti, herbicidal effect (criteria 0-5) (Abutilon theophrasti) | G: Setaria viridis, herbicidal effect (criteria 0-5) (Setaria viridis) | L: Apera spica-venti, herbicidal effect grade (Apera spica-venti [6]) | H: Echinochloa crus-galli var. crus-galli, herbicidal effect grade [1] | H (Echinochloa crus-galli var. crus-galli) herbicidal effect grade [2] | Herbicidal effect grade, N: Amaranthus retroflexus (Amaranthus retroflexus) | Herbicidal effect grade, P: Stellaria media (Stellaria media) | a (transplanted rice plant) effect on crop grade (transplanted rice plant) | also measured
1 | CC(CC1CC(O)=C(c2c(C)cc(C)cc2C)C1=O)=NOCCS(C)(=O)=O (stereo not drawn) [1-110] | 5 (Herbicidal ratio of 90% or more (almost completely withered)) | 5 (Herbicidal ratio of 90% or more (almost completely withered)) | 0 (Herbicidal ratio of 5% or lower (almost no effect)) | 0 (Herbicidal ratio of 5% or lower (almost no effect)) | 5 (Herbicidal ratio of 90% or more (almost completely withered)) | 5 (Herbicidal ratio of 90% or more (almost completely withered)) | 5 (Herbicidal ratio of 90% or more (almost completely withered)) | 0 (Herbicidal ratio of 5% or lower (almost no effect)) | 0 (Herbicidal ratio of 5% or lower (almost no effect)) | 5 (Herbicidal ratio of 90% or more (almost completely withered)) | 5 (Herbicidal ratio of 90% or more (almost completely withered)) | 0 (Herbicidal ratio of 5% or lower (almost no effect)) | 0 (Herbicidal ratio of 5% or lower (almost no effect)) | 5 (Herbicidal ratio of 90% or more (almost completely withered)) | 5 (Herbicidal ratio of 90% or more (almost completely withered)) |  |  |  |  |  | 
2 | CC#Cc1cc(C)c(C2=C(O)CC(CC(=NOC)C(C)C)C2=O)c(C)c1 (stereo not drawn) [9-006] |  |  |  |  |  |  |  |  |  |  |  |  |  |  |  | 5 (Herbicidal ratio of 90% or more (almost completely withered)) | 5 (Herbicidal ratio of 90% or more (almost completely withered)) | 2 (Herbicidal ratio of 20% or higher and lower than 40%) | 0 (Herbicidal ratio of 5% or lower (almost no effect)) | 5 (Herbicidal ratio of 90% or more (almost completely withered)) | E herbicidal effect grade (Cyperus difformis): 5 (Herbicidal ratio of 90% or more (almost completely withered)); L: Apera spica-venti, herbicidal effect grade (Apera spica-venti [3]): 5 (Herbicidal ratio of 90% or more (almost completely withered)); Effect on crop grade, d: soybean (soybean [4]): 0 (Herbicidal ratio of 5% or lower (almost no effect)); d: soybean, effect on crop grade (soybean [5]): 0 (Herbicidal ratio of 5% or lower (almost no effect)); D (Leptochloa chinensis) herbicidal effect grade (Leptochloa chinensis): 5 (Herbicidal ratio of 90% or more (almost completely withered)); Herbicidal effect grade, J: Alopecurus myosuroides (Alopecurus myosuroides): 5 (Herbicidal ratio of 90% or more (almost completely withered)); Herbicidal effect grade, R: Veronica persica (Veronica persica): 4 (Herbicidal ratio of 70% or higher and lower than 90%); M: Abutilon theophrasti, herbicidal effect grade (Abutilon theophrasti): 0 (Herbicidal ratio of 5% or lower (almost no effect)); G: Setaria viridis, herbicidal effect grade (Setaria viridis): 5 (Herbicidal ratio of 90% or more (almost completely withered)); Herbicidal effect grade, L: Apera spica-venti (Apera spica-venti [6]): 5 (Herbicidal ratio of 90% or more (almost completely withered))
3 | CC#Cc1cc(C)c(C2=C(O)CC(CC(=NOC)C3CC3)C2=O)c(C)c1 (stereo not drawn) [9-008] |  |  |  |  |  |  |  |  |  |  |  |  |  |  |  | 5 (Herbicidal ratio of 90% or more (almost completely withered)) | 5 (Herbicidal ratio of 90% or more (almost completely withered)) | 4 (Herbicidal ratio of 70% or higher and lower than 90%) | 0 (Herbicidal ratio of 5% or lower (almost no effect)) | 5 (Herbicidal ratio of 90% or more (almost completely withered)) | E herbicidal effect grade (Cyperus difformis): 5 (Herbicidal ratio of 90% or more (almost completely withered)); L: Apera spica-venti, herbicidal effect grade (Apera spica-venti [3]): 5 (Herbicidal ratio of 90% or more (almost completely withered)); Effect on crop grade, d: soybean (soybean [4]): 0 (Herbicidal ratio of 5% or lower (almost no effect)); d: soybean, effect on crop grade (soybean [5]): 3 (Herbicidal ratio of 40% or higher and lower than 70%); D (Leptochloa chinensis) herbicidal effect grade (Leptochloa chinensis): 5 (Herbicidal ratio of 90% or more (almost completely withered)); Herbicidal effect grade, J: Alopecurus myosuroides (Alopecurus myosuroides): 5 (Herbicidal ratio of 90% or more (almost completely withered)); Herbicidal effect grade, R: Veronica persica (Veronica persica): 3 (Herbicidal ratio of 40% or higher and lower than 70%); M: Abutilon theophrasti, herbicidal effect grade (Abutilon theophrasti): 4 (Herbicidal ratio of 70% or higher and lower than 90%); G: Setaria viridis, herbicidal effect grade (Setaria viridis): 5 (Herbicidal ratio of 90% or more (almost completely withered)); Herbicidal effect grade, L: Apera spica-venti (Apera spica-venti [6]): 5 (Herbicidal ratio of 90% or more (almost completely withered))
4 | CC(CC1CC(O)=C(c2c(C)cc(C)cc2C)C1=O)=NOCc1cccc(C(F)(F)F)c1 (stereo not drawn) [1-117] | 5 (Herbicidal ratio of 90% or more (almost completely withered)) | 5 (Herbicidal ratio of 90% or more (almost completely withered)) | 0 (Herbicidal ratio of 5% or lower (almost no effect)) | 0 (Herbicidal ratio of 5% or lower (almost no effect)) | 5 (Herbicidal ratio of 90% or more (almost completely withered)) | 5 (Herbicidal ratio of 90% or more (almost completely withered)) | 5 (Herbicidal ratio of 90% or more (almost completely withered)) | 0 (Herbicidal ratio of 5% or lower (almost no effect)) | 0 (Herbicidal ratio of 5% or lower (almost no effect)) | 4 (Herbicidal ratio of 70% or higher and lower than 90%) | 4 (Herbicidal ratio of 70% or higher and lower than 90%) | 0 (Herbicidal ratio of 5% or lower (almost no effect)) | 1 (Herbicidal ratio of 5% or higher and lower than 20%) | 5 (Herbicidal ratio of 90% or more (almost completely withered)) | 5 (Herbicidal ratio of 90% or more (almost completely withered)) |  |  |  |  |  | 
5 | CC(CC1CC(O)=C(c2c(C)cc(C)cc2C)C1=O)=NOCc1ccccc1C(F)(F)F (stereo not drawn) [1-116] | 5 (Herbicidal ratio of 90% or more (almost completely withered)) | 5 (Herbicidal ratio of 90% or more (almost completely withered)) | 5 (Herbicidal ratio of 90% or more (almost completely withered)) | 0 (Herbicidal ratio of 5% or lower (almost no effect)) | 3 (Herbicidal ratio of 40% or higher and lower than 70%) | 4 (Herbicidal ratio of 70% or higher and lower than 90%) | 5 (Herbicidal ratio of 90% or more (almost completely withered)) | 0 (Herbicidal ratio of 5% or lower (almost no effect)) | 3 (Herbicidal ratio of 40% or higher and lower than 70%) | 3 (Herbicidal ratio of 40% or higher and lower than 70%) | 4 (Herbicidal ratio of 70% or higher and lower than 90%) | 0 (Herbicidal ratio of 5% or lower (almost no effect)) | 1 (Herbicidal ratio of 5% or higher and lower than 20%) | 5 (Herbicidal ratio of 90% or more (almost completely withered)) | 3 (Herbicidal ratio of 40% or higher and lower than 70%) |  |  |  |  |  | 

Reference: patent US11000033B2, “Ketone or oxime compound, and herbicide” (NISSAN CHEMICAL CORPORATION, priority 2014, dated 2021)
